Experiment [1] addresses T1, Serine/threonine-protein phosphatase (Candida dubliniensis (strain CD36 / CBS 7987 / NCPF 3949 / NRRLY-17841) (Yeast), UniProt B9W6M3).
T1 sequence (B9W6M3 whole entry): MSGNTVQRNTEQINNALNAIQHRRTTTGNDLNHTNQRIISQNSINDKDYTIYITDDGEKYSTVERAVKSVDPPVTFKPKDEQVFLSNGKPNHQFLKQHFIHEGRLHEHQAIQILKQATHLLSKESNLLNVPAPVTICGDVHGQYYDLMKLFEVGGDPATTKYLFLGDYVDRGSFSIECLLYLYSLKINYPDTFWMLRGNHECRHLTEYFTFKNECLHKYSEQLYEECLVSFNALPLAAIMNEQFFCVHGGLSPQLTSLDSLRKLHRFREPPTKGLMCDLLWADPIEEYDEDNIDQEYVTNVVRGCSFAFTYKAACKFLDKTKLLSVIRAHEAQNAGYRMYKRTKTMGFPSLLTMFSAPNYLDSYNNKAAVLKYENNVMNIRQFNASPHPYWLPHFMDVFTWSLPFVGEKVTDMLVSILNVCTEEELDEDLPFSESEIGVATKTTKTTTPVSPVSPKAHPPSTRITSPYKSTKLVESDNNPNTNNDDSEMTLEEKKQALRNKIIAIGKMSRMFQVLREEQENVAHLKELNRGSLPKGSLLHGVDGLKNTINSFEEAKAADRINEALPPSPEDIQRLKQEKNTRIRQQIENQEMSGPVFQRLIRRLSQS
The experiment in a line: calcineurin pathway inhibitors in yeast reporter, dose response, S. cerevisiae, CDRE-lacZ, luminescence, secondary (AID 2388).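 Further: yeast reporter cells carrying a calcineurin-responsive lacZ construct stimulated with calcium chloride; luminescent beta-galactosidase reporter signal in whole cells rather than isolated phosphatase activity; potency for inhibition where a drop in reporter signal means calcineurin blockade.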 The format is functional, cell-based.

Experiment [2] is described as follows: HeLa cell cytotoxicity, dose response, cytotoxicity control for MgcRacGAP inhibitor project (AID 624300). Type of experiment: functional.
The target of a further experiment is T2, Protein RecA (Mycobacterium tuberculosis, UniProt P9WHJ3).
T2 sequence (P9WHJ3 whole entry): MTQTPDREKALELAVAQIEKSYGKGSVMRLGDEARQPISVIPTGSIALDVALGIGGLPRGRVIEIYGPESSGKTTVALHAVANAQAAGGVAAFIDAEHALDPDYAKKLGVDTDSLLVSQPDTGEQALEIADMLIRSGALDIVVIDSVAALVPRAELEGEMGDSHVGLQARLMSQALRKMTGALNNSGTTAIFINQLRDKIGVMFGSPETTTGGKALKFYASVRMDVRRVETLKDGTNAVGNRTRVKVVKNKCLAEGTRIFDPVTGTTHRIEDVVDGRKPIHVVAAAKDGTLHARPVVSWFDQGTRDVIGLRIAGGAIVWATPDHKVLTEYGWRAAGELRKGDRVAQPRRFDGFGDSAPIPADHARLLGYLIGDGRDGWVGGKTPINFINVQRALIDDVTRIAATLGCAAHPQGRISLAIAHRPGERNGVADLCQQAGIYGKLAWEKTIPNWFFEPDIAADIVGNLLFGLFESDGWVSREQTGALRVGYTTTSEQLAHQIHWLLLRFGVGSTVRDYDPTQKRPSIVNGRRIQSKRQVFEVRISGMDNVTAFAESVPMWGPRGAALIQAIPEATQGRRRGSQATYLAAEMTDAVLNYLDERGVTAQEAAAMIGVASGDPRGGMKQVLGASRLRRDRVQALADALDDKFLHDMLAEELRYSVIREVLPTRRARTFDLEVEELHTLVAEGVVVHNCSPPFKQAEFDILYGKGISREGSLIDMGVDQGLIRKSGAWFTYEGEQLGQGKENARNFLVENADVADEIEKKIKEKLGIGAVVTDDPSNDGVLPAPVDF
The experiment in a line: Fluorescence Cell-Free Homogeneous Dose Retest to Identify Inhibitors of RecA-Intein Splicing Activity. [Related pubchem assays (depositor defined):AID2097, AID2223, AID489010, AID492950]. The format is functional.

Another experiment concerns the target Integrin alpha-4 (Homo sapiens, UniProt P13612). The experiment in a line: VLA-4 integrin allosteric ligands, SAR follow-up, cell-based, LIBS antibody binding, flow cytometry (AID 488791). The format is functional.
Experiment [3] deals with Sphingosine 1-phosphate receptor 2 (Homo sapiens, UniProt O95136). The experiment in a line: Dose Response Cell Based Assay for Antagonists of the S1P2 Receptor. [Related pubchem assays: 856, 736 ]. Type of experiment: functional.
For another experiment, the target named is T3, Leucine aminopeptidase (Plasmodium falciparum 3D7, UniProt Q8IL11).
T3 sequence (Q8IL11 whole entry): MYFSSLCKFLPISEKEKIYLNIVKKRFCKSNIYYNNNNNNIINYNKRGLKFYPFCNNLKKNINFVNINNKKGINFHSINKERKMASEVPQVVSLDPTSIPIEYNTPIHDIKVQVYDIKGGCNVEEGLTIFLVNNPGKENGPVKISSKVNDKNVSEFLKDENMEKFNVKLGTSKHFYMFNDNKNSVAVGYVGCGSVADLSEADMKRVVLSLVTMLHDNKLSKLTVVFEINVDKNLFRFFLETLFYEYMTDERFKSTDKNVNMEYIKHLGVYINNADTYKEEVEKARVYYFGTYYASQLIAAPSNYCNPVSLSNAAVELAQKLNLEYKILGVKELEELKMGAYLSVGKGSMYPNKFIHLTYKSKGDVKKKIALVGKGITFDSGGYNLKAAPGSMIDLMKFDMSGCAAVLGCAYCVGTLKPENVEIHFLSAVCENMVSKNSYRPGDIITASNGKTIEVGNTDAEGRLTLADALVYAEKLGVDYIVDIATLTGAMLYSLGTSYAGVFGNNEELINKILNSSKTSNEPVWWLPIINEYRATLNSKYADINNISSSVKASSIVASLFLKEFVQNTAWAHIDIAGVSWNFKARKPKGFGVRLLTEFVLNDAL
The experiment can be described thus: P. falciparum M17LAP inhibitors, primary screen, biochemical, fluorogenic H-Leu-NHMec substrate, 1536-well (AID 1619). The format is functional.

For experiment [4], the target named is Intestinal-type alkaline phosphatase (Homo sapiens, UniProt P09923). The experiment in a line: inhibition of human intestinal alkaline phosphatase – biochemical, dose response (AID 488876). Type of experiment: functional.
The target in experiment [5] is Interleukin-1 receptor-associated kinase 1 (Homo sapiens, UniProt P51617). The format is functional.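 Further: IRAK1 tested as one member of a kinome panel.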
In experiment [6] the target is Tyrosine-protein kinase JAK3 (Homo sapiens, UniProt P52333). The format is functional.
Experiment [7] has as its target Casein kinase I isoform alpha (Homo sapiens, UniProt P48729). The format is functional.
For experiment [8], the target named is Dual specificity mitogen-activated protein kinase kinase 1 (Homo sapiens, UniProt Q02750). The experiment can be described thus: Navigating the Kinome. Panel member name: MAP2K1. The format is functional.
The target of a further experiment is Insulin receptor (Homo sapiens, UniProt P06213). The format is functional.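 Further: insulin receptor kinase tested as one member of a kinome-wide kinase panel.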
Experiment [9] addresses Tyrosine-protein kinase Lyn (Homo sapiens, UniProt P07948). The format is functional.
For experiment [10], the target named is Tyrosine-protein kinase FRK (Homo sapiens, UniProt P42685). Type of experiment: functional.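 Further: FRK tested as one member of a kinome panel.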
The target in experiment [11] is Cyclin-dependent kinase 1 (Homo sapiens, UniProt P06493). The format is functional.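 Further: Kinome-wide panel profiling, with the target listed as panel member CDC2.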
In experiment [12] the target is Mitogen-activated protein kinase 9 (Homo sapiens, UniProt P45984). The format is functional.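 Further: value from a kinome panel profiling assay, MAPK9 panel entry.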

Active and inactive are the calls of the source. Some results are limits rather than exact numbers.

Sequence of Intestinal-type alkaline phosphatase (P09923 whole entry): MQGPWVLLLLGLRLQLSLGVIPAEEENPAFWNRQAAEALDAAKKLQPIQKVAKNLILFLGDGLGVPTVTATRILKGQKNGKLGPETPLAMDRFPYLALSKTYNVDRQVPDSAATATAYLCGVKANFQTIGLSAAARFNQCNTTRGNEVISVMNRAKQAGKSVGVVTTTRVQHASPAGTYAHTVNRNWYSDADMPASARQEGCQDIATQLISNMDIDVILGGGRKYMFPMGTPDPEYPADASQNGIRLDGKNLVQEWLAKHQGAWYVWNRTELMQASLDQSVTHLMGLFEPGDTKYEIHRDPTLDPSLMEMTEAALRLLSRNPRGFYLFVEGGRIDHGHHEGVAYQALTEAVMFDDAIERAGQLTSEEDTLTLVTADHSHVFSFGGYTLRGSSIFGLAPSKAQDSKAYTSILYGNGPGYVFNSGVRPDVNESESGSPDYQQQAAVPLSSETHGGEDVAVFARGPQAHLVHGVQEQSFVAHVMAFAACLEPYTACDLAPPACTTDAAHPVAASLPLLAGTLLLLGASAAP
Sequence of Tyrosine-protein kinase FRK (P42685 whole entry): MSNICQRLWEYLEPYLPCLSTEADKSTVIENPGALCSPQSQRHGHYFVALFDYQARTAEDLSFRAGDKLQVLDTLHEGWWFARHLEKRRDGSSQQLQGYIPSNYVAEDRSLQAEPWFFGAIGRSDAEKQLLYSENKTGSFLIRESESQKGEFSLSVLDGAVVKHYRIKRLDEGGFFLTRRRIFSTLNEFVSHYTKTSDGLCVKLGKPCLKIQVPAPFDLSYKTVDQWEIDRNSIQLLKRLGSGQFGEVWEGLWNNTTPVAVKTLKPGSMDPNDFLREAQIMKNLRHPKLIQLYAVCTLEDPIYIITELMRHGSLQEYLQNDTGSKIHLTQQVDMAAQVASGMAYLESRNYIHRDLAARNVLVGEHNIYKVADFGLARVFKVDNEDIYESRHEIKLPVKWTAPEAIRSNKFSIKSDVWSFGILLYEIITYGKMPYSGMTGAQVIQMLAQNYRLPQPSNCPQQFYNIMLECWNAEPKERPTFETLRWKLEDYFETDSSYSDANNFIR
Sequence of Integrin alpha-4 (P13612 whole entry): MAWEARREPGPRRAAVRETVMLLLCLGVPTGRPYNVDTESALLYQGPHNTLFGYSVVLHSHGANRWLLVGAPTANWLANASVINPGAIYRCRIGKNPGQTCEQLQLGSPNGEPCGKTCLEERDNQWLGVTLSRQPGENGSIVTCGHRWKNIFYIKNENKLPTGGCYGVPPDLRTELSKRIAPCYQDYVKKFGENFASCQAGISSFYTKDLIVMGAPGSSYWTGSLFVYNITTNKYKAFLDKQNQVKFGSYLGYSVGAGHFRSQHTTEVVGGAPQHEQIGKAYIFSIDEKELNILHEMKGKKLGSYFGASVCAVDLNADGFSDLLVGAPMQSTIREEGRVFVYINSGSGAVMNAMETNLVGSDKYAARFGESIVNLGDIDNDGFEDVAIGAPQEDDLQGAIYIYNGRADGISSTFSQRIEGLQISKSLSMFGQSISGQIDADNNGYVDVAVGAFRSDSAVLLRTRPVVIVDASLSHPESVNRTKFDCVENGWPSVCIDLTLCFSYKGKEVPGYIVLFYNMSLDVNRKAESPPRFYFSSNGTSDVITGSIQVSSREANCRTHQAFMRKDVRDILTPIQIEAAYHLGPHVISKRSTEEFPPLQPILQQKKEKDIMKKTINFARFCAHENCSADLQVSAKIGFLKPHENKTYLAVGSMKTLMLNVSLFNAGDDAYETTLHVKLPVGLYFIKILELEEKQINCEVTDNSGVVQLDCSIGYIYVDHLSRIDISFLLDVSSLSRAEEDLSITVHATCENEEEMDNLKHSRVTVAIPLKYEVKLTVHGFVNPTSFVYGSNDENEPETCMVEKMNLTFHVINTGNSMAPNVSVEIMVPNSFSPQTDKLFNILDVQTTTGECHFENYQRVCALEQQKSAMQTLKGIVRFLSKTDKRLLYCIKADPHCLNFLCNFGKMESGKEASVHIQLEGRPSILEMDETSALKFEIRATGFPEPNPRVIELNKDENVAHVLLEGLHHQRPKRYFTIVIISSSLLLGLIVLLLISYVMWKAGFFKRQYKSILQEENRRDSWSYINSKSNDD
Sequence of Mitogen-activated protein kinase 9 (P45984 whole entry): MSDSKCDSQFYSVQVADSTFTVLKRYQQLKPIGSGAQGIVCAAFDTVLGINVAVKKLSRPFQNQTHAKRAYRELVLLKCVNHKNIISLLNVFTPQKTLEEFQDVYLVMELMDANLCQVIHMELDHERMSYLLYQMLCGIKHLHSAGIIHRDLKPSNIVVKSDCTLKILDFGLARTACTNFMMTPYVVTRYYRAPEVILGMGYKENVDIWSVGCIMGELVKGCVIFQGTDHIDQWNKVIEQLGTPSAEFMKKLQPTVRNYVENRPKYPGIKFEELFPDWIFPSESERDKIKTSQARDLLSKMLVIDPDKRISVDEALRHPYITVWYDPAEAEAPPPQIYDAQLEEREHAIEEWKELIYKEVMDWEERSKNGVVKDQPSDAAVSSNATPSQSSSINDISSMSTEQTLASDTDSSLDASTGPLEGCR
Sequence of Dual specificity mitogen-activated protein kinase kinase 1 (Q02750 whole entry): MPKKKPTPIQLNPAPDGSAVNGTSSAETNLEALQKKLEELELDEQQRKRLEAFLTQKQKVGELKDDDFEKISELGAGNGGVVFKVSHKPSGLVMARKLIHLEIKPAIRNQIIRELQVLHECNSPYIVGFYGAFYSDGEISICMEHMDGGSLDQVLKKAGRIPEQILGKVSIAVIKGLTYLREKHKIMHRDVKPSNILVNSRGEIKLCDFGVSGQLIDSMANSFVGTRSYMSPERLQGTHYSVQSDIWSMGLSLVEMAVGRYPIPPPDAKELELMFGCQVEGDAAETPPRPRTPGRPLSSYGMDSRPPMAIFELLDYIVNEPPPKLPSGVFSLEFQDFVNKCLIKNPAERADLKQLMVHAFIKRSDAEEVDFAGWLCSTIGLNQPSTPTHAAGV
Sequence of Cyclin-dependent kinase 1 (P06493 whole entry): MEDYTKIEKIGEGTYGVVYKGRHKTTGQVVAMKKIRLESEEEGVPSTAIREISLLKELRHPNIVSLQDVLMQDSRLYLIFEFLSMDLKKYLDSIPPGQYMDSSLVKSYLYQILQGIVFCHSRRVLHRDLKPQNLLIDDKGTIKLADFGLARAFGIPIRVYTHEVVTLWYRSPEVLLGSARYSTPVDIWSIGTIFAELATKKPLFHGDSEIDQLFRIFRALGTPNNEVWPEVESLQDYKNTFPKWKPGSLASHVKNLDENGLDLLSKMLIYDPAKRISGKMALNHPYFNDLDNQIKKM
Sequence of Insulin receptor (P06213 28-758 limits assumed): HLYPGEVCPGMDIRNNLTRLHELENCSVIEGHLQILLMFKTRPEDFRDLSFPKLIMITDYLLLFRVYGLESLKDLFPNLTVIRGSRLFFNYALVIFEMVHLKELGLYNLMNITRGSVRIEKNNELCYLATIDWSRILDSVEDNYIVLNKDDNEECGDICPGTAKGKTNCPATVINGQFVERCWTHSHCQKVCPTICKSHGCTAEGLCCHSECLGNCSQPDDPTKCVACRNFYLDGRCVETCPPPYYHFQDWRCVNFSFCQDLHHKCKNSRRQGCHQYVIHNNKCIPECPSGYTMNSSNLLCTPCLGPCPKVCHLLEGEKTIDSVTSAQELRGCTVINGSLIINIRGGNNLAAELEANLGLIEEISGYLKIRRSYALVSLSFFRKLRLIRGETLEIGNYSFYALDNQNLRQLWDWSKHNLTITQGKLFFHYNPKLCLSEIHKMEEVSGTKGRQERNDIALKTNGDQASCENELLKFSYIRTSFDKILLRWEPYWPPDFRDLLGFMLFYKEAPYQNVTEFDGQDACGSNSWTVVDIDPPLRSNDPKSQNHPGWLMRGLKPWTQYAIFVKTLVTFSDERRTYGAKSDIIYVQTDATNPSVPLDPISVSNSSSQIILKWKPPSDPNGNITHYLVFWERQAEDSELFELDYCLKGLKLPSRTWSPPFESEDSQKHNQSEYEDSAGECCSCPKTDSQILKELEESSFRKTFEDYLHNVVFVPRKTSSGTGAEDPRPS
Sequence of Insulin receptor (P06213 763-1382 limits assumed): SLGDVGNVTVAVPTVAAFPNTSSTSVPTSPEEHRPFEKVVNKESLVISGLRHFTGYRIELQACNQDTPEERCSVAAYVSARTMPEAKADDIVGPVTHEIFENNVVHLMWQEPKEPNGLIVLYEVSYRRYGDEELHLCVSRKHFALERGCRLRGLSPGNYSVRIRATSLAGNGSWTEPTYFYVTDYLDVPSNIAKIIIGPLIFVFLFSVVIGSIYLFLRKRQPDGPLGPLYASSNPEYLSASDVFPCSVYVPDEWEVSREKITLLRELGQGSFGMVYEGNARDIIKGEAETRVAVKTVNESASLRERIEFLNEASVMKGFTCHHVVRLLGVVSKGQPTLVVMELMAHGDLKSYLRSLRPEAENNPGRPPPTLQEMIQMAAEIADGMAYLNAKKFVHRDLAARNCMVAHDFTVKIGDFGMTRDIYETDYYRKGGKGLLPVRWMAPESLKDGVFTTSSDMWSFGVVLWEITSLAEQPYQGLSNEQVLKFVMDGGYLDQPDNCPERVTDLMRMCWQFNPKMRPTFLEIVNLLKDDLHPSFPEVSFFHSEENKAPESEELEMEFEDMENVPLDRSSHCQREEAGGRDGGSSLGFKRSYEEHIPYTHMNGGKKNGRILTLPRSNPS
Sequence of Sphingosine 1-phosphate receptor 2 (O95136 whole entry): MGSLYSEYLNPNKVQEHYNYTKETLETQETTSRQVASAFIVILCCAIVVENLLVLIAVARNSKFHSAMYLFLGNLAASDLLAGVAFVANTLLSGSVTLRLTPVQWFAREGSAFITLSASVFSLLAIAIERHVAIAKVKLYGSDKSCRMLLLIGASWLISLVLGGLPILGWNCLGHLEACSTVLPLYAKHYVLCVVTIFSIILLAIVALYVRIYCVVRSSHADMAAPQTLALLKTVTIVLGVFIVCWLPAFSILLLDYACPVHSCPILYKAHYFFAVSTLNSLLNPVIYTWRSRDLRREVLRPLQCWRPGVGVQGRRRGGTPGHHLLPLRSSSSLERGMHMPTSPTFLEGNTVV

Take `CN(C)S(=O)(=O)Oc1cccc(C(=O)Nc2ccc(Cl)c(Cl)c2)c1`: the EC50 in [1] was > 180 µM (inactive).
For `Cc1ccc2[nH]c(/C(C#N)=C/c3ccc(O)c(O)c3)nc2c1`, the CC50 in experiment [2] was 100 µM (active).
Consider `COC(=O)C1CN(C#N)N(c2ccc(Cl)cc2)C12c1ccccc1-c1ccccc12` (stereo unspecified), for which the EC50 at Protein RecA is 7 µM (active); at Integrin alpha-4, 18.9 µM (active). In experiment [3], the IC50 was 2.79 µM (active).
In the case of `O=C(NN1C(=O)CSC1=S)C(=O)NN1C(=O)CSC1=S`, the concentration for half-maximal inhibition (IC50) on Leucine aminopeptidase was 20.5 µM (active); in experiment [4] it was > 100 µM (inactive).
For `Nc1noc2cccc(-c3cccc(O)c3)c12`, the Ki in experiment [5] was > 7.94 µM (inactive); in [6], > 1.58 µM (inactive); in [7], > 5.01 µM (inactive); in [8] it was 1.58 µM (active); at Insulin receptor, > 5.01 µM (inactive); in [9] it was > 1.58 µM (inactive). The Ki was 0.0398 µM (active) in [10], > 7.94 µM (inactive) in experiment [11] and > 3.98 µM (inactive) in experiment [12].

The values above are taken from ChEMBL document CHEMBL1201862, “PubChem BioAssay data set” (2004).
